Measurements from ChEMBL document CHEMBL5252632, “Small molecule-based fluorescent probes for the detection of α-Synuclein aggregation states” (Bioorg Med Chem Lett, 2023).

Assays:
[1] = biological target: T1, Alpha-synuclein (Homo sapiens, UniProt P37840); test: Binding affinity to C-terminal His6-tagged human Alpha-synuclein fibrils (1 to 97 residues) expressed in Escherichia coli assessed as association constant by chromatography method
[2] = biological target: Amyloid-beta precursor protein (Homo sapiens, UniProt P05067); test: Binding affinity to amyloid beta (1 to 40) (unknown origin) aggregates assessed as dissociation constant
[3] = biological target: T1, Alpha-synuclein; test: Binding affinity to Alpha-synuclein (unknown origin) assessed as dissociation constant
[4] = biological target: T1, Alpha-synuclein; test: Binding affinity to human recombinant Alpha-synuclein assessed as dissociation constant by fluorometric method

Sequence of Amyloid-beta precursor protein (P05067 whole entry): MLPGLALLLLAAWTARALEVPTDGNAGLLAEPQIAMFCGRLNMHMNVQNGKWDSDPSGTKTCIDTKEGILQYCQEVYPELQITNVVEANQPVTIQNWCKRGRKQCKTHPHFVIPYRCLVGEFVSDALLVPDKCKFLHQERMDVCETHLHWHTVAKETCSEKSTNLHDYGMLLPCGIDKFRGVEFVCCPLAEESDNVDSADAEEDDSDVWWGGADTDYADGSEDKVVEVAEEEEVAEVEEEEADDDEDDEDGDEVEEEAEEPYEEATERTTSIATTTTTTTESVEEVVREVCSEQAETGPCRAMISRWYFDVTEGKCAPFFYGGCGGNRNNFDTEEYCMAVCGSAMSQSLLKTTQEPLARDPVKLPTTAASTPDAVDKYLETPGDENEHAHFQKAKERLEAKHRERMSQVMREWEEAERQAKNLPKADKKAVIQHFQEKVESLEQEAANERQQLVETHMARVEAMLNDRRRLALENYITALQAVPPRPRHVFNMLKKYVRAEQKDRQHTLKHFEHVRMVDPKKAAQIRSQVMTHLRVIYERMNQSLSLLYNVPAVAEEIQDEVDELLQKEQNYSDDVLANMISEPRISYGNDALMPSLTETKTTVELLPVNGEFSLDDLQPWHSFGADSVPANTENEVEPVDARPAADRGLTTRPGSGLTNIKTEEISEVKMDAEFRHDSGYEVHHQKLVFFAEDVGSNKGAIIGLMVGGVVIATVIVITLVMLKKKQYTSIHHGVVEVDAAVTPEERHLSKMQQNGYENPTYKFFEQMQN

Kd [2] [µM]	Kd [3] [µM]	Structure (SMILES)	other results
0.22		COc1ccc2nc(-c3ccc(N4CCOCC4)cc3)sc2c1	
0.22		COc1ccc2nc(-c3ccc(N4CCCCCC4)cc3)sc2c1	
	118	COc1ccc2c(c1)sc(-c1ccc(N3CCCCC3)cc1)[n+]2C	
	118	COc1ccc2c(c1)sc(-c1ccc(N3CCCCCCC3)cc1)[n+]2C	
0.22		COc1ccc2nc(-c3ccc(N4CCCCCCC4)cc3)sc2c1	
0.22		COc1ccc2nc(-c3ccc(N4CCCCC4)cc3)sc2c1	
0.22		COc1ccc2nc(-c3ccc(N4CCCC4)cc3)sc2c1	
	118	COc1ccc2c(c1)sc(-c1ccc(N3CCCCCC3)cc1)[n+]2C	

The next lines start with the compound.

Structure (SMILES)	Kd [2] [µM]	Kd [3] [µM]	other results
OCCOC(=C\C=C1N(c2ccccc2)c2cc3ccccc3cc2N1c1ccccc1)/C=C/c1n(-c2ccccc2)c2cc3ccccc3cc2[n+]1-c1ccccc1			Ka [1]: 380000 M⁻¹
COc1ccc2c(c1)sc(-c1ccc(N(C)C)cc1)[n+]2C		118	
O=S(=O)(O)c1cccc2c(-c3ccc(Nc4ccccc4)c4c(S(=O)(=O)O)cccc34)ccc(Nc3ccccc3)c12			Kd [4]: 8.6 µM
COc1ccc2nc(-c3ccc(N(C)C)cc3)sc2c1	0.22		
COc1ccc2c(c1)sc(-c1ccc(N3CCOCC3)cc1)[n+]2C		118	
CN(C)c1ccc2nc(/C=C/C=C/C=C(C#N)C#N)sc2c1	0.048		
O=S(=O)(O)c1ccc2cc(Nc3ccccc3)ccc2c1			Kd [4]: 8.8 µM
